Results: patent publication US5859004A, “Use of heterocyclic compounds for the treatment of conditions caused by malfunctioning of the nicotinic cholinergic system” (Novo Nordisk A/S, priority 1995, dated 1999)
Where two headings read alike, the source gives them in different places.

Legend:
[1] = biological target: T1, nicotinic acetylcholine receptors (rat cortical receptors) (Rattus norvegicus, UniProt P09483+P12390); experiment: Inhibition of specific binding of ^3 H-methylcarbamylcholine (^3 H-MCC); conditions: for Ratio Oxo/MCC: IC50 ^3 H-Oxo / IC50 ^3 H-MCC, selectivity nicotinic over muscarinic; for IC50: rat cortical receptors, ^3 H-MCC 2 nM, 0° C., 60 min
T1 construct: Fresh or frozen rat, brain tissue (hippocampus or cortex) was homogenized; from tissue; host or cells: rat brain tissue (hippocampus or cortex)
From the text: The pharmacological properties of the compounds of the invention can be illustrated by determining their capability to inhibit the specific binding of ^3 H-methylcarbamylcholine (^3 H-MCC) (Abood and Grassi, Biochem. Pharmacol., Vol. 35, pp. 4199--4202, (1986)).
^3 H-MCC labels the nicotinic receptors in the CNS. The inhibitory effect on ^3 H-MMC binding reflects the affinity for nicotinic acetylcholine receptors.
Fresh or frozen rat, brain tissue (hippocampus or cortex) was homogenized in assay buffer (50 mM Tris-HCl, pH 7.4, 120 mM NaCl, 5 mM KCl, 2 mM CaCl2, 1 mM MgCl2) and centrifuged for 10 min. at 40.000×g. Pellets were subsequently reconstituted in assay buffer and an appropriate amount of tissue sample was mixed in tubes with ^3 H-methylcarbamylcholine (NEN, NET-951; final concentration 2 nM) and test drug. The tubes were incubated at 0° C. for 60 min. Unbound ligand was separated from bound ligand by vacuum filtration through GF/B filters presoaked in 0.5% polyethylenimine. Filters were washed three times with 5 ml wash buffer (50 mM Tris-HCl, pH 7.4) and transferred to vials. 4 ml scintillation fluid was added and the radioactivity was measured by scintillation counting. Unspecific binding was measured with 10 μM nicotine.
The IC50 values of the test compounds were determined by nonlinear regression analyses (GraphPad InPlot).
Table I illustrates the affinity of the compounds of the present invention for nicotinic and muscarinic receptors as determined by ^3 H-MCC and ^3 H-Oxo binding to rat cortical receptors. The compounds, however, show selective affinity for nicotinic receptors as compared to muscarinic receptors, i.e OXO/MCC>1.

[2] = biological target: muscarinic acetylcholine receptors (rat cortical receptors); experiment: Inhibition of specific binding of ^3 H-Oxotremorine-M (^3 H-Oxo); conditions: rat cortex; ^3 H-Oxotremorine 1.0 nM, 25° C., 30 min
From the text: Furthermore, the pharmacological properties of the compounds of the invention can also be illustrated by determining their capability to inhibit the specific binding of ^3 H-Oxotremorine-M (^3 H-Oxo). Birdsdall N. J. M., Hulme E. C., and Burgen A. S. V. (1980). "The Character of Muscarinic Receptors in Different Regions of the Rat Brain". Proc. Roy. Soc. London (Series B) 207,1.
^3 H-Oxo labels muscarinic receptor in the CNS (with a preference for agonist domains of the receptors). Three different sites are labelled by ^3 H-Oxo. […] Using the present experimental conditions only the high and medium affinity sites are determined.
The inhibitory effects of compounds on ^3 H-Oxo binding reflects the affinity for muscarinic acetylcholine receptors.
All preparations are performed at 0°-4° C. unless otherwise indicated. Fresh cortex (0.1-1 g) from male Wistar rats (150-250 g) is homogenized for 5-10 s in 10 ml 20 mM Hepes pH: 7.4, with an Ultra-Turrax homogenizer. The homogenizer is rinsed with 10 ml of buffer and the combined suspension centrifuged for 15 min. at 40,000×g. The pellet is washed three times with buffer. In each step the pellet is homogenized as before in 2×10 ml of buffer and centrifuged for 10 min. at 40,000×g.
The final pellet is homogenized in 20 mM Hepes pH: 7.4 (100 ml per g of original tissue) and used for binding assay. Aliquots of 0.5 ml is added 25 μl of test solution and 25 μl of ^3 H-Oxotremorine (1.0 nM, final concentration) mixed and incubated for 30 min. at 25° C. Non-specific binding is determined in triplicate using arecoline (1 μg/ml, final concentration) as the test substance. After incubation samples are added 5 ml of ice-cold buffer and poured directly onto Whatman GF/C glass fiber filters under suction and immediately washed 2 times with 5 ml of ice-cold buffer. The amount of radioactivity on the filters are determined by conventional liquid scintillation counting. Specific binding is total binding minus non specific binding.
Test substances are dissolved in 10 ml water (if necessary heated on a steam-bath for less than 5 min.) at a concentration of 2.2 mg/ml. 25-75% inhibition of specific binding must be obtained before calculation of IC50. The test value will be given as IC50 (the concentration (nM) of the test substance which inhibits the specific binding of ^3 H-Oxo by 50%).
IC50 =(applied test substance concentration)×(Cx /Co
where Co is specific binding in control assays and Cx is the specific binding in the test assay. (The calculations assume normal mass-action kinetics).
Table I illustrates the affinity of the compounds of the present invention for nicotinic and muscarinic receptors as determined by ^3 H-MCC and ^3 H-Oxo binding to rat cortical receptors. […]

[3] = biological target: muscarinic acetylcholine receptors (rat cortical receptors); conditions: read-out: affinity of site labelled by ^3 H-Oxo, cited from earlier work
nicotinic = conditions: age related; cited from earlier work
substantia nigra = conditions: chronic nicotine; lesioning; cited from earlier work
healthy humans = conditions: cited from earlier work
[4] = tested on: Alzheimer's disease patients; conditions: cited from earlier work
dopaminergic effects = conditions: various behavioral models; cited from earlier work
dopamine release = conditions: nucleus accumbens versus striatum; cited from earlier work
Tourette's syndrome = conditions: in vivo; cited from earlier work

T1 sequence (P09483 31-630): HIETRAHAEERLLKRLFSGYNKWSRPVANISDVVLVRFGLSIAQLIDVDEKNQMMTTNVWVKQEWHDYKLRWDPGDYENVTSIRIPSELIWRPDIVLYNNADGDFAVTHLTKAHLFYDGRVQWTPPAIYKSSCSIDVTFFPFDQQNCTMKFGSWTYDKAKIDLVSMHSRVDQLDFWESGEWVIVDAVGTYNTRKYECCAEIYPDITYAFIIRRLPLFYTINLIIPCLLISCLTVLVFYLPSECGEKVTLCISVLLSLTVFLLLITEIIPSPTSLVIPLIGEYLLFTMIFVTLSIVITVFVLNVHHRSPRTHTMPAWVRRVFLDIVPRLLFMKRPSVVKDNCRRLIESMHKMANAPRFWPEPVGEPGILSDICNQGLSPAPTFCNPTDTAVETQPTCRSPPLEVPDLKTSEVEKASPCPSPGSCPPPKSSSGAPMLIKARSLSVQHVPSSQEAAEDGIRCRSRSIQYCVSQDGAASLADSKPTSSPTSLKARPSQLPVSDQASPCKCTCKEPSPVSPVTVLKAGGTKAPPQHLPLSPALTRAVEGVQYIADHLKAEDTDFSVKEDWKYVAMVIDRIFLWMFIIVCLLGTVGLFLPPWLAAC
T1 sequence (P12390 25-500): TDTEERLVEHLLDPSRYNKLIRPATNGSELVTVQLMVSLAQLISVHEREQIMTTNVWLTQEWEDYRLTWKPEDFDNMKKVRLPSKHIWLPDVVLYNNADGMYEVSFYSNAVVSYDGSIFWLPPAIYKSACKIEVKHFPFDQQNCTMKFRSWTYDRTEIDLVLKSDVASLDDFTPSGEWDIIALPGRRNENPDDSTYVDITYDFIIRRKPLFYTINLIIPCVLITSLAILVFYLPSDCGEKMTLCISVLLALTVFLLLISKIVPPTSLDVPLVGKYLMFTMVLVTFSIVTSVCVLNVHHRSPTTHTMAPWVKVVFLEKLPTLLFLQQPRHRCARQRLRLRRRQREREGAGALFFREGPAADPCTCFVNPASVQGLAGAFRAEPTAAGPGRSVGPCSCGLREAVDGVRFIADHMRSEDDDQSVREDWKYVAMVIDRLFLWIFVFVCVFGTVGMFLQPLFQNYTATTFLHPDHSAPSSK

| Structure (SMILES) | Ratio Oxo/MCC [1] | IC50 [1] [nM] | IC50 [2] [nM] | other results |
| --- | --- | --- | --- | --- |
| Cc1cc(/C=C2\CN3CCCC2C3)on1.O=C(O)C(=O)O (stereo not shown) [Compound 3, (Z)-6-(3-methyl-5-isoxazolyl)methylene-1-azabicyclo[3.2.1]octane oxalate] | 5.9 | 161 | 953 | – |
| Cc1cc(/C=C2/CN3CCCC2C3)on1.O=C(O)C(=O)O (stereo not shown) [Compound 4, (E)-6-(3-methyl-5-isoxazolyl)methylene-1-azabicyclo[3.2.1]octane oxalate] | 22.1 | 81 | 1780 | – |
| Cc1cc(/C=C2\CN3CCC2C3)on1.O=C(O)C(=O)O (stereo not shown) [Compound 5, (Z)-3-(3-methyl-5-isoxazolyl)methylene-1-azabicyclo[2.2.1]heptane oxalate] | 17.2 | 25 | 430 | – |
| Cc1cc(/C=C2/CN3CCC2C3)on1.O=C(O)C(=O)O (stereo not shown) [Compound 6, (E)-3-(3-methyl-5-isoxazolyl)methylene-1-azabicyclo[2.2.1]heptane oxalate] | 55.0 | 20 | 1100 | – |
| C[N+](C)(C)CC#CCN1CCCC1=O [^3 H-Oxo, ^3 H-Oxotremorine-M] | – | – | – | Kd ([3]; high affinity site): 1.8 nM; Kd ([3]; medium affinity site): 20 nM; Kd ([3]; third (lowest affinity) site, not determined under the present conditions): 3000 nM |
| CNC1(C)C2CCC(C2)C1(C)C (stereo not shown) [mecamylamine] | – | – | – | cognitive impairment (nicotinic): cause cognitive impairment in an age related way |
| CN1CCCC1c1cccnc1 (stereo not shown) [nicotine] | – | – | – | protection against cell loss in the substantia nigra (substantia nigra): may protect against cell loss in the substantia nigra caused by lesioning; attention and memory (healthy humans): improved attention and memory; attention and memory [4]: improved attention and memory; potentiation of dopaminergic effects (dopaminergic effects): will potentiate dopaminergic effects in various behavioral models; dopamine release (dopamine release): stimulates dopamine release in the nucleus accumbens more potently than in striatum; effects in Tourette's syndrome (Tourette's syndrome): beneficial effects in Tourette's syndrome |
